The values that follow come from article PMC12118576, “Selective Glycopolymer Inhibitors of Galectin-3: Supportive Anti-Cancer Agents Protecting Monocytes and Preserving Interferon-Gamma Function” (International Journal of Nanomedicine, 2025).

Values joined by “and” are separate entries in the source; they are usually repeats but may differ in a detail not shown here. Identical values can stand only once. Like-named read-outs stand apart in the source and are kept apart here.

One assay deals with T1, human Gal-3 (Homo sapiens, UniProt P17931).
T1 construct: made in house; host or cells: E. coli Rosetta 2(DE3)pLysS
As to the kind of experiment: Competitive ELISA-type assay: inhibition of Gal-3 binding to immobilized asialofetuin (ASF). The settings on record: for Selectivity for Gal-3: IC50 for Gal-1/IC50 for Gal-3. The method, then:
Microtiter plates (Nunc Immuno Sorb, ThermoFisher Scientific, USA) were coated with ASF (0.1 µM in PBS, pH 7.5, 50 µL/well) and incubated overnight. The wells were washed with 3×250 µL of PBS containing 0.05% Tween (repeated after each step). The wells were then blocked by 2% w/v BSA in PBS buffer (250 µL/well) for 1 h. Serial dilutions of the ligands (glycopolymers or oligosaccharides) in EPBS (2 mM EDTA in PBS) were incubated with Gal-1 or Gal-3 (1.25 µM final concentration) for 2 h. The residual bound galectin was labeled with anti-His antibody conjugated to horseradish peroxidase (Santa Cruz; 1:1000 dilution in PBS, 1 h). TMB One substrate solution (Kem-En-Tech, Denmark; 50 µL/well) was added, and the reactions were incubated until visible blue staining appeared (3–20 min). The reaction was stopped by adding 3 M HCl (50 µL per well), resulting in a color shift to yellow, which was determined spectrophotometrically by an absorbance microplate reader (Sunrise Tecan Group Ltd, CH). The intensity of the signal at 450 nm corresponded to the amount of galectin bound to the wells. Non-linear regression (dose–response inhibition-variable slope) of the sigmoidal curves was used to calculate the values of half-maximal inhibitory constants (IC50) from at least six independent experiments using GraphPad Prism 7 (GraphPad Software, USA).
For the affinity measurement, the competitive ELISA assay with ASF as an immobilized competitor ligand was employed.[51] […] The inhibitory potency of the prepared glycopolymers was compared to the respective monovalent standards (LN1-LN2-tBoc, LN2-LN2-tBoc, LDN-LN2-tBoc) to calculate their relative potencies (rp) for inhibition of Gal-3 (Table 1). Relative potency values thus disclose the extent of the so-called multivalency effect of the glycopolymer – the ability of a ligand bound to a multivalent carrier to get easier access and orientation to the lectin-binding site.[52]

The next assay deals with J774A.1 macrophages. The assay is described as follows: Gal-3-induced apoptosis of J774A.1 macrophages, Annexin V flow cytometry. It is filed as cell-based, murine. To be noted: 10 µM Gal-3, 24 h, no glycopolymer. Here is the method:
For flow cytometry studies, cultured undifferentiated (without any LPS and cytokines) J774A.1 murine macrophages were seeded in a concentration of 10^5 cells/well of the 24-well plate. After 24 h of cultivation, cells were pretreated with the desired concentration of glycopolymers for 5 minutes and afterward treated with 10 μM Gal-3 for 24 h. After harvesting of cells, early and late apoptoses of Gal-3-treated J774A.1 cells in the presence or absence of glycopolymers were evaluated using eBioscience Annexin V apoptosis detection kit (Thermo Fisher Scientific). Flow cytometry was performed using FACS Canto II (BD Biosciences, Franklin Lakes, NJ, USA). Apoptotic half-maximal inhibitory concentrations (IC50) of individual glycopolymers were calculated by nonlinear regression of log(glycopolymer concentration) versus apoptosis response using GraphPad Prism 8 software (version 8.0.1; GraphPad Software, La Jolla, CA, USA).
Tumor-associated macrophages (TAMs) are defined as M1 or M2 subtypes, which differ in their roles in carcinogenesis.[56] Phenotypically M2 macrophages, which are usually more abundant inside tumors and seem to be mainly responsible for the spread of cancer,[57] are chemoattracted into the tumor mass by the Gal-3 gradient.[11] Therefore, we aimed to investigate the inhibitory potential of prepared glycopolymers towards Gal-3 in the context of monocytes and macrophages. […]
For orientation: Flow cytometry measures light scatter and fluorescence of single cells or particles in a stream.

Assay [1] addresses T2, recombinant human Gal-3 biotinylated at the lysine of the N-terminal AVI-tag (human, UniProt P17931 1-250, biotin on the lysine of the AVI-tag (…)).
T2 construct: galectin-3, human; Gal-3-AVI construct in pET-Duet1; Held on streptavidin Dynabeads M-280 through the biotin; also called Gal-3-AVI; biotinylated Gal-3; source: E. coli BL21 (DE3) with birA biotin ligase, purified (Ni-NTA)
As to the kind of experiment: depletion from solution by coated magnetic beads, ELISA of the supernatant; biotinylated Gal-3 on Dynabeads M-280 Streptavidin; increasing amount of beads incubated with glycosylated IFNγ, 1 h, room temperature; beads separated, IFNγ left in the supernatant measured by ELISA. To be noted: both partners purified. (In general: ELISA stands for enzyme-linked immunosorbent assay.)

Setting [2] is: IC50 per glycan, Gal-3 1.25 µM, binding to immobilized ASF, read-out: IC50 [µM]/Glycan.

T1 sequence (P17931 whole entry): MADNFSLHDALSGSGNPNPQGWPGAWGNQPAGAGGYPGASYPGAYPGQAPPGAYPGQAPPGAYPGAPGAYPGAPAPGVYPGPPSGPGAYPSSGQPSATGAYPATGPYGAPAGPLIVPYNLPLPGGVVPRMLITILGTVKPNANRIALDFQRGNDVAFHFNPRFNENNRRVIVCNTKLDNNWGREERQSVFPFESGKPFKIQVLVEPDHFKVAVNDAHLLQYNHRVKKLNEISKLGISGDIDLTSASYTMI
T2 sequence (P17931 whole entry): as above

Regarding `CC(=O)N[C@@H]1[C@@H](O)[C@H](O[C@@H]2O[C@H](CO)[C@H](O)[C@H](O[C@@H]3O[C@H](CO)[C@@H](O)[C@H](O[C@@H]4O[C@H](CO)[C@H](O)[C@H](O)[C@H]4O)[C@H]3NC(C)=O)[C@H]2O)[C@@H](CO)O[C@H]1NC(=S)NCCNC(=O)OC(C)(C)C` [Glycopolymer 4, (tert-Butoxycarbonylamino)ethylthioureidyl β-D-Galactopyranosyl-(1→3)-2-Acetamido-2-Deoxy-β-D-Glucopyranosyl-(1→3)-β-D-Galactopyranosyl-(1→4)-2-Acetamido-2-Deoxy-β-D-Glucopyranoside], the “Selectivity for Gal-3” value on human Gal-3 turned out to be 17. The IC50 at human Gal-3 (setting [2]) amounted to 27.1 ± 4.4 µM; on human Gal-3 (concentration required to inhibit Gal-3 binding to immobilized ASF by 50%, read-out: IC50) it was 27.1 ± 4.4 µM.

For `CC(=O)N[C@@H]1[C@@H](O)[C@H](O[C@@H]2O[C@H](CO)[C@H](O)[C@H](O[C@@H]3O[C@H](CO)[C@@H](O[C@@H]4O[C@H](CO)[C@H](O)[C@H](O)[C@H]4O)[C@H](O)[C@H]3NC(C)=O)[C@H]2O)[C@@H](CO)O[C@H]1NC(=S)NCCNC(=O)OC(C)(C)C` [Glycopolymer 5, (tert-Butoxycarbonylamino)ethylthioureidyl β-D-Galactopyranosyl-(1→4)-2-Acetamido-2-Deoxy-β-D-Glucopyranosyl-(1→3)-β-D-Galactopyranosyl-(1→4)-2-Acetamido-2-Deoxy-β-D-Glucopyranoside], the “Selectivity for Gal-3” value on human Gal-3 amounted to 10. In addition, the IC50 at human Gal-3 (setting [2]) was determined as 10.2 ± 3.2 µM.

Consider `CC(=O)N[C@@H]1[C@@H](O)[C@H](O[C@@H]2O[C@H](CO)[C@H](O)[C@H](O[C@@H]3O[C@H](CO)[C@@H](O[C@@H]4O[C@H](CO)[C@H](O)[C@H](O)[C@H]4NC(C)=O)[C@H](O)[C@H]3NC(C)=O)[C@H]2O)[C@@H](CO)O[C@H]1NC(=S)NCCNC(=O)OC(C)(C)C` [Glycopolymer 6, (tert-Butoxycarbonylamino)ethylthioureidyl 2-Acetamido-2-Deoxy-β-D-Galactopyranosyl-(1→4)-2-Acetamido-2-Deoxy-β-D-Glucopyranosyl-(1→3)-β-D-Galactopyranosyl-(1→4)-2-Acetamido-2-Deoxy-β-D-Glucopyranoside], for which, at human Gal-3, the “Selectivity for Gal-3” value stood at 13. The IC50 on human Gal-3 (setting [2]) is 7.4 ± 0.5 µM.

In the case of “Gal-3: Recombinant human galectin-3, N-terminal His-tagged protein construct produced in E. coli; used to induce apoptosis”, in the assay with J774A.1 macrophages, the “apoptosis of J774A.1 cells induced by Gal-3” value is 20.7 ± 0.8% and 15–25%.

B1: glycosylated human IFNγ (natural protein, UniProt P01579 24-161, looked up)
chain: QDPYVKEAENLKKYFNAGHSDVADNGTLFLGILKNWKEESDRKIMQSQIVSFYFKLFKNFKDDQSIQKSVETIKEDMNVKFFNSNKKKRDDFEKLTNYSVTDLNVQRKAIHELIQVMAELSPAAKTGKRKRSQMLFRG
modifications: glycosylated
notes: interferon-gamma, human, glycosylated; also called interferon-gamma; INFγ; source: bought: Sigma-Aldrich
For B1, in assay [1], the binding result was “binds”.
